Read-outs that look alike come from different tables or passages of the source.
Columns and labels:
OVCAR-3 = assay: Cytotoxicity IC50 experiments, XTT kit, 24 h incubation; type: cell-based; details: for IC50: 24 h incubation, XTT, read-out: IC-50 values after 24 h incubation, OVCAR-3; for viability at 20 µM: OVCAR-3, 20 μM, 24 h, read-out: cell viability
Experimental: (§1) Aloe-emodin was purchased from Molekula.
(§2) The cells were incubated for 24 h.

NAR cells = assay: as above; details: for IC50: DOX resistant, P-gp overexpressing; for viability at 100 µM: read-out: cell viability
Experimental: as §1, §2
Finally, AEGs 13-16 were evaluated against DOX resistant ovarian cancer NAR cells in which resistance is conferred by overexpression of P-gp efflux pumps^[36]

MCF-7 cells = assay: Light microscopy study of treated cells; type: cell-based; details: MCF-7, 20 μM, 24 hours, x400
Experimental: FIG. 9: Light microscopy (x400) pictures of MCF-7 cells: Cell cultures were incubated for 24 hours. (a) Untreated control cells (b) AE 20 μM (c), Dox 20 μM, (d) AEG 13 20 μM.
Cells micrographs were obtained using a light microscope (Olympus IX50-S8F2 inverted phase microscope) at x400 magnification.

[1] = system: supercoiled plasmid PBR322; assay: Supercoiled plasmid DNA unwinding gel experiment (DNA intercalation); type: binding
Experimental: Eppendorf tubes containing 3 μL supercoiled plasmid PBR322 (0.167 μg/ml), 14 μL tris-HCl-di-natrium-EDTA (TE X1) and 5 μL, AE, or one of the AEGs 1-4 or doxorubicin, at different concentrations were incubated for 15 min at 37° C. The samples were then added with 2 μl of loading buffer, and loaded on a 1% agarose gel in tris-HCl-boric-acid-di-natrium-EDTA (TBE X1). Samples were on the gel run for 15 min at 50 V and an additional 225 min at 70V. The gels were then immersed in a 0.5 mg/ml solution of ethidium bromide shaken for 20 min., washed with DDW for […]. DNA was visualized by UV illumination.
The DNA intercalation property of AEGs 13-16 was studied by applying the robust supercoiled plasmid DNA unwinding gel experiments protocol.^[23,37,38] Briefly, samples containing one of the AEGs 13-16, DOX or AE were pre-incubated with PBR322DNA plasmid, loaded on a 1% agarose gel, run for 4 hours at 70 volts and stained with ethidium bromide. […] At 200 μM.

DOX resistant NAR cells = assay: Fluorescent confocal microscopy study of cell permeability; type: cell-based; details: 5 μM, two hour incubation
Experimental: Cells (1×10^5/well) were plated into 24-well microtiter plates and incubated over coverslips for 24 hours. The cells were then added with one of the AEGs or DOX or AE at a total sample concentration of 5 μM. After 2 hours of incubation, the cells were washed three times, using PBS×1 (0.5 ml per well), and incubated with paraformaldehyde (3.7% in PBS 0.5 ml per well). After 15 min at ambient temperature, the cells were washed twice using PBS×1 0.5 ml per well. Cells were shaken at 50 rpm for 5 min after each wash. The plasma membrane of the fixated cells was stained by incubation of the samples with 300 μl of DiIC18(5)-DS ([…]) at 4° C. After 20 min, the cells were washed twice using PBS×1 0.5 ml per well. Cells were shaken at 50 rpm for 5 min after each wash. Finally, the samples were placed on a microscope slide and fixed using 10 μl of mounting. The slides were observed using an Andor Revolution Imaging System equipped with a Yokogawa CSU-X1 Spinning Disk Unit and an iXon 897 back-illuminated EMCCD camera, and mounted on a custom made Olympus IX-Upright microscope at Ex/Em=488/525 nm for DOX and AE glycoside I and Ex/Em=640/685 nm for DiIC18 (5)-DS.
A possible explanation for the potency of the synthetic AEGs against. DOX resistant cells was provided using fluorescent confocal microscopy (FIG. 11). […]

MOLT-4 = assay: Cytotoxicity IC50 experiments, XTT kit, 24 h incubation; details: for IC50: read-out: IC-50 values after 24 h incubation, MOLT-4, 24 h incubation, XTT
MCF-7 = assay: as above; details: Homo sapiens, MCF7, 24 h, read-out: cell viability
Experimental: as §1, §2

B16 (murine melanoma) = assay: Cytotoxicity assay of compounds 11 and 12 (XTT, % cytotoxicity)
Experimental: (§3) The respective cell type at 1×10^4 cells/well was incubated for 24 hours in 96-well plates and cell viability was determined using the 2,3-bis(2-methoxy-4-nitro-5-sulphophenyl)-2H-tetrazolium-5-carboxanilide (XTT) kit (Biological Industries, Israel). […] Optical density is directly proportional to the number of living cells in culture. Cytotoxicity (%) was calculated in the following way: [(absorbance of control cells−absorbance of drug-treated cells)/absorbance of control cells]×100. Results shown are averages of 3 repeats ±SE.

[2] = system: HCT 116 (human colon adenocarcinoma); assay: as above
Experimental: as §3

[3] = system: MCA 105 (murine fibrosarcoma); assay: as above
Experimental: as §3

[4] = system: Molt-4 (human T cell leukemia); assay: as above
Experimental: as §3

[5] = cited from earlier work
[6] = read-out: IC-50 values after 24 h incubation, NAR, 24 h incubation, XTT
[7] = B16, 24 hours of incubation, E-1 at the highest concentration
[8] = HCT116, 24 hours of incubation, E-1 at the highest concentration
[9] = MCA 105, 24 hours of incubation, E-1 at the highest concentration
[10] = Molt-4, 24 hours of incubation, E-1 at the highest concentration
[11] = 24 h, read-out: IC-50 values after 24 h incubation, NAR, 24 h incubation, XTT

CC1O[C@@H](OCc2cc(O)c3c(c2)C(=O)c2cccc(O)c2C3=O)CC(N)[C@H]1O (some centres unmarked) [AEG 13]
IC50 (OVCAR-3): 5.2 ± 0.1 µM | improvement in cytotoxic potency compared to DOX and AE (NAR cells): at least two orders of magnitude | IC50 (NAR cells; [6]): 8.6 ± 0.6 µM | cell numbers and cell morphology by light microscopy (MCF-7 cells): a very small number of highly damaged cells was observed | DNA shift effect ([1]; 200 μM): most significant effect | cellular accumulation (cell permeability) (DOX resistant NAR cells): intracellular accumulation | IC50 (MOLT-4): 5.8 ± 1.3 µM

CC1O[C@H](OCc2cc(O)c3c(c2)C(=O)c2cccc(O)c2C3=O)CC(N)[C@H]1O (some centres unmarked) [AEG 16]
IC50 (OVCAR-3): > 20 µM | viability at 20 µM (OVCAR-3; Homo sapiens): 60% | viability at 20 µM (MCF-7): 83% | IC50 (NAR cells; [6]): 28.3 ± 2.3 µM | IC50 (MOLT-4): 12.8 ± 0.7 µM

NC1CC(OCc2cc(O)c3c(c2)C(=O)c2cccc(O)c2C3=O)OCC1O [E-2, Aloe-Emodin connected through C-7 to beta 2-deoxy-3-deoxy-3-amino-L-xylopyranose]
cytotoxicity, general outcome (FIG. 4B) (B16 (murine melanoma); [7]): much weaker effect | cytotoxicity, general outcome (FIG. 4C) [2, 8]: much weaker effect | cytotoxicity, general outcome (FIG. 4D) [3, 9]: much weaker effect | cytotoxicity, general outcome (FIG. 4A) [4, 10]: much weaker effect | toxicities (cytotoxicity) ([4]; Molt-4, up to 8 hours of incubation): about 20%

CC1O[C@@H](OCc2cc(O)c3c(c2)C(=O)c2cccc(O)c2C3=O)CC(N)[C@H]1O (some centres unmarked) [AEG 15]
IC50 (OVCAR-3): 15.7 ± 0.8 µM | IC50 (NAR cells; [6]): 18 ± 1.3 µM | IC50 (MOLT-4): 5.4 ± 0.4 µM

O=C1c2cccc(O)c2C(=O)c2c(O)cc(CO)cc21 [AE, Aloe-emodin]
IC50 (OVCAR-3; Homo sapiens, OVCAR-3, 24 h): > 20 µM | viability at 20 µM (MCF-7): 77% | IC50 (NAR cells; [11]): > 100 µM | viability at 100 µM (NAR cells; 24 h): 78% | toxicities (cytotoxicity) ([4]; human): about 20% | solubility in water and in physiological solutions [5]: hardly soluble | cell viability (MOLT-4; MOLT-4, 20 μM, 24 h): 100% | IC50 (MOLT-4): > 20 µM

NC1CC(OCc2cc(O)c3c(c2)C(=O)c2cccc(O)c2C3=O)OCC1O [E-1, Aloe-Emodin connected through C-7 to alpha 2-deoxy-3-deoxy-3-amino-L-xylopyranose]
cytotoxicity, general outcome (FIG. 4B) (B16 (murine melanoma); [7]): much more effective than Alo | cytotoxicity, general outcome (FIG. 4C) [2, 8]: much more effective than Alo | cytotoxicity, general outcome (FIG. 4D) [3, 9]: much more effective than Alo | cytotoxicity ([4]; Molt-4, 100 μM, 4 hours of incubation): about 90% | cytotoxicity, general outcome (FIG. 4A) [4, 10]: much more effective than Alo

CC1O[C@H](OCc2cc(O)c3c(c2)C(=O)c2cccc(O)c2C3=O)CC(N)[C@H]1O (some centres unmarked) [AEG 14]
IC50 (OVCAR-3): 6.4 ± 0.2 µM | viability at 100 µM (NAR cells; 24 h): 65% | IC50 (NAR cells; [6]): > 100 µM | DNA shift effect ([1]; 200 μM): weak effect | IC50 (MOLT-4): 7.6 ± 1.6 µM

COc1cccc2c1C(=O)c1c(O)c3c(c(O)c1C2=O)C[C@@](O)(C(=O)CO)C[C@@H]3O[C@H]1C[C@H](N)[C@H](O)[C@H](C)O1 [DOX, doxorubicin, reference compound]
IC50 (OVCAR-3; Homo sapiens, OVCAR-3, 24 h): > 20 µM | viability at 20 µM (OVCAR-3; Homo sapiens): 61% | viability at 20 µM (MCF-7): 83% | IC50 (NAR cells; [11]): > 100 µM | cell viability (NAR cells; NAR, 100 μM, 24 h): not affected at all | cytotoxicity, general outcome (FIG. 4B) (B16 (murine melanoma)): much more effective than the other compounds | cytotoxicity, general outcome (FIG. 4C) [2]: much more effective than the other compounds | cytotoxicity, general outcome (FIG. 4D) [3]: much more effective than the other compounds | cytotoxicity, general outcome (FIG. 4A) [4]: much more effective than the other compounds | toxicities (cytotoxicity) ([4]; human): about 20% | cell numbers and cell morphology by light microscopy (MCF-7 cells): became more spherical in shape and smaller in size | DNA shift effect ([1]; 20 μM): still significant | DNA shift effect ([1]; 200 μM): intense effect | cellular accumulation (cell permeability) (DOX resistant NAR cells): accumulated mainly in the plasma membrane | IC50 (MOLT-4): 0.2 ± 0.07 µM

— patent US20130045933A1, “ALOE-EMODIN DERIVATIVES AND USE THEREOF FOR THE TREATMENT OF CANCER” (RAMOT AT TEL-AVIV UNIVERSITY LTD., priority 2010, published 2013)
